Experimental data reported in patent US20220162221A1, “Imaging Agents” (UCB Biopharma SRL, priority 2017, published 2022).
pEC50: −log10 of the molar value.

How the values were obtained:
hD1R in SK-N-MC cells = hD1R in SK-N-MC cells (Homo sapiens, UniProt P21728); assay: cAMP HTRF D1 functional assay; conditions: for Erel: relative efficacy compared to dopamine maximum response, SK-N-MC cells
Method: The reaction was terminated by consecutive additions of 10 μL d2 detection reagent and the cryptate reagent both diluted in lysis buffer. After a period of 60 min at room temperature, changes in HTRF emission ratio were determined and transformed in [cAMP]i using a standard curve.

D1 receptor [1] = assay: In vivo potentiation PET imaging with D1 PAM; parameters: species or system cynomolgus monkeys (Macaca fascicularis); conditions: FIG. 5, Compound-B 20 mg/kg
Method: Two cynomolgus monkeys (Macaca fascicularis) housed at the MPI Research (Mattawan, Mich.), were used as research subjects for the in vivo potentiation PET studies.
Each animal was anesthetized with propofol iv bolus (2.5-5.0 mk/kg) and maintained with propofol iv Continuous Rate Infusion (CRI, 0.1-0.6 mg/kg/min). for at least 30 minutes prior to initiation of Compound-B i.v. dose administration. Several dose levels were administered. […]
Following Compound (−)-Ib administration, arterial blood samples were drawn from the central iliac artery prior to the dosing with Compound (−)-Ib and at 13 time points up to 120 min post-injection of Compound (−)-Ib. All blood samples were collected in anticoagulant tubes and stored on wet ice until quantification for radioactivity by gamma counter, measure of Compound (−)-Ib parent fraction in plasma over time by HPLC and Compound (−)-Ib ex vivo stability in blood.
Reconstructed dynamic brain PET images were transferred and analyzed using the image processing PMOD software package (PMOD Technologies, Zurich, Switzerland). […] Subsequent PET images acquired during drug studies were aligned first to the baseline images and then transformed into the common MR template space using the already calculated transformation from the baseline images. […]

D1 receptor [2] = assay: In vivo PET imaging in cynomolgus monkey
Method: Experiment was performed in a cynomolgus monkey (Female, body weight 6.02 kg). The monkeys were sedated using intramuscular injection of ketamine and kept anesthetized using a mixture of sevoflurane, oxygen and medical air for the duration of the experiment. A baseline scan was performed following intravenous administration of 141 MBq of (−)-(Ia) at a specific activity of 795 GBq/μmol and PET images of the brain were acquired using the Siemens HRRT PET scanner (Siemens Preclinical Solutions, Knoxville, Tenn.).
(§1) Data were acquired for 123 min and binned into sinograms with the following frame timing: 9×20 sec; 3×1 min; 5×3 min; and 17×6 min. Regions of interest used in this study were caudate nucleus, putamen, cerebellum, frontal cortex, occipital cortex, globus pallidus, midbrain, ventral striatum, thalamus and temporal cortex. Registration parameters were obtained to apply the regions of interests to the PET scan and regional time-activity curves (TACs) were generated. Venous blood samples were withdrawn at 4, 15, 30, 60, 90, 120 minutes after (−)-(Ie) administration for metabolite analysis.

D1 receptor [3] = target: T1, D1 receptor (Macaca mulatta, UniProt O77680); assay: Autoradiography on NHP brain slices; format: binding
T1 construct: 12 μm brain slices were prepared from fresh frozen NHP brain hemisphere; tissue Motac (Bordeaux, France); host or cells: Macaca mulatta brain sections (caudate putamen)
T1 sequence (O77680 whole entry): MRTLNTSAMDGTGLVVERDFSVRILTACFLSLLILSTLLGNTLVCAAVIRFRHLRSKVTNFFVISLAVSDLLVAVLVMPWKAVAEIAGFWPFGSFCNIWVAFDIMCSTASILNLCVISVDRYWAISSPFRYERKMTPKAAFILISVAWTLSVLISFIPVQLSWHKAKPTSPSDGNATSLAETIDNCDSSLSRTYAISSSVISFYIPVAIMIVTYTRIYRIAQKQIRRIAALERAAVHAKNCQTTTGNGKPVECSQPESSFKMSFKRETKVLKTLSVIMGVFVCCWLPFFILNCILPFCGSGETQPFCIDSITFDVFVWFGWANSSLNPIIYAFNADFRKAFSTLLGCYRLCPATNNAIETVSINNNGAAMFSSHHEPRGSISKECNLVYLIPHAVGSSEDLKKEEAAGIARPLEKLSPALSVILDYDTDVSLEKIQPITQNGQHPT
Method: Brain sections from non-human primate (NHP) Macaca mulatta were provided by Motac (Bordeaux, France) where all animal experiments were performed in accordance with european animal use ethical guidance and legislation.
12 μm brain slices were prepared from fresh frozen NHP brain hemisphere and were placed on glass microscopy slide. Autoradiography experiment was performed at room temperature in HBSS HEPES buffer (pH 7.4). NHP brain sections first equilibrated for 30 min before to be incubated for one hour with [^3H]compound in 1% DMSO. Slides were then washed in iced-cold 50 mM Tris-HCl buffer (pH 7.4) for 5 min followed by two washes in iced-cold distilled water. Sections were dried under atmospheric pressure at room temperature. Radioactivity on slice was either measured indirectly after exposure of slides to a phosphor screen, either using a direct counter. In every autoradiography experiments, a [^3H]standard was included for quantification and the NSB was defined as the residual binding of [^3H]compound observed in the presence of 10 μM non-labeled compound.

human D1R = human D1R (Homo sapiens, UniProt P21728); assay: Radioligand binding on HEK hD1R membranes with or without D1 PAM; parameters: expressed in transfected cells; host or cells: HEK cells, transient transfection, pcDNA3.1; membrane preparation
Sequence of human D1R (P21728 whole entry): as the sequence (O77680 whole entry) above, with I311N counted along it
Method: Transient transfection of human dopamine D1R was performed with pcDNA3.1 vector in human embryonic kidney cells (HEK hD1R).
The membrane of HEK hD1R cells were used to measure radioligand binding. 48 hours post transfection, cells were pelleted by centrifugation at 1,500 g and 4° C. for 10 min. Pellet was washed once with ice-cold phosphate buffered saline solution (PBS) and centrifuged as described just above. Pellet was homogenized in a buffer containing 15 mM Tris-HCl, 0.3 mM ethylene diamine tetraacetic acid, 1 mM ethylene glycol tetraacetic acid, 2 mM MgCl2 (pH 7.5) and complemented with protease inhibitor cocktail. The homogenate was freeze-thawed twice and equilibrated at 25° C. followed by a 10 min DNAse (10 U/ml) treatment. Subsequently, the solution was centrifuged at 40,000 g and 4° C. for 30 min. Finally, the pellet was resuspended in 20 mM Tris-HCl buffer (pH 7.4) containing 250 mM sucrose and store at −80° C. until D1 radioligand binding assay. […] At the end of the incubation period, the protein-bound radioligand was recovered by filtration through pre-soaked GF/B glass fiber filters. Filters were washed with at least 4 times the assay volume of ice-cold 50 mM Tris-HCl buffer (pH 7.4). […] The filters were dried and the radioactivity determined by liquid scintillation.
Competition/potentiation binding experiments were carried out at constant (−)-(Ic) concentration (1-4 nM) and 10 increasing concentrations of (−)-(Ic) or compound b (10^−10 M to 10^−5 M).

[4] = Metabolite profile by radio-HPLC of venous blood samples; format: in vivo, cynomolgus monkey; conditions: for metabolites detected (words): venous blood, radio-HPLC
Method: as §1
The profile of metabolites of (−)-Ia was determined by radio-HPLC analysis of the venous blood samples collected post-administration at several timepoints. The parent fraction in plasma is 85% at 15 minutes, 60% at 30 minutes and still about 45% at 60 minutes.

[5] = saturation binding, 10 μM D1 PAM, HEK hD1R membranes (FIG. 3B)
[6] = Logan reference tissue model, cerebellum as reference

Sequence of hD1R in SK-N-MC cells (P21728 whole entry): as the sequence (O77680 whole entry) above, with I311N counted along it

For `Cc1c(-c2ccc(Oc3nccc4occc34)cc2CF)n(C)c(=O)[nH]c1=O` (single isomer, unassigned) [Compound (−)-(I), 6-(2-(fluoromethyl)-4-(furo[3,2-c]pyridin-4-yloxy)phenyl)-1,5-dimethylpyrimidine-2,4(1H,3H)-dione], the pEC50 (hD1R in SK-N-MC cells) was 8.30, the “agonist-like effect on D1 receptor” value (hD1R in SK-N-MC cells; cAMP HTRF) was “D1 partial agonist-like effect” and the Erel (hD1R in SK-N-MC cells) was 53 ± 13%. It also gave an Erel (hD1R in SK-N-MC cells; listed as (−)-I) of 53%.
For `Cc1c(-c2ccc(Oc3nccc4occc34)cc2C[18F])n(C)c(=O)[nH]c1=O` [(−)-(Ib), [^18]-6-(2-(fluoromethyl)-4-(furo[3,2-c]pyridin-4-yloxy)phenyl)-1,5-dimethylpyrimidine-2,4(1H,3H)-dione], the “effect of D1 PAM on tracer binding/uptake in vivo (words)” value (D1 receptor [1]) was “significantly improved binding properties” and the “effect of D1 PAM on tracer binding/uptake in vivo (words)” value (D1 receptor [1]; listed as (−)-Ib) was “increased uptake”.
In the case of `Cc1c(-c2ccc(Oc3nccc4occc34)cc2CF)n(C)c(=O)[nH]c1=O` (single isomer, unassigned) [(−)-(Ia), [^11C]-6-(2-(fluoromethyl)-4-(furo[3,2-c]pyridin-4-yloxy)phenyl)-1,5-dimethylpyrimidine-2,4(1H,3H)-dione], the “brain uptake pattern” value (D1 receptor [2]; PET images, summed SUV 33-63 minutes) was “uptake pattern consistent with the reported distribution of D1-like receptors in the brain”.
In the case of “[^3H]-6-(2-(fluoromethyl)-4-(furo[3,2-c]pyridin-4-yloxy)phenyl)-1,5-dimethylpyrimidine-2,4(1H,3H)-dione [(−)-(Ic)]”, the “specific binding in the presence of a D1 PAM” value (D1 receptor [3]; NHP brain slices, FIG. 4) was “significantly increased”, the “Total Binding in caudate putamen (words)” value (D1 receptor [3]; NHP brain slices, listed as (Ic)) was “significantly binds in caudate putamen” and the “Total Binding in caudate putamen (words)” value (D1 receptor [3]; NHP brain slices, listed as (−)-Ic) was “significant binding”. For the same compound, the non specific binding (D1 receptor [3]; in the presence of 10 μM compound (I), caudate putamen) was 20%, the “effect of D1 PAM on radioligand binding” value (human D1R; HEK hD1R membranes (FIG. 3)) was “significantly improved binding properties” and the “potentiation of radioligand binding by D1 PAM” value (human D1R; low nanomolar radioligand concentration (1-4 nM), FIG. 3C) was greater than 50%. The “decrease of KD by D1 PAM” value (human D1R; [5]) was 20% and the “increase of Bmax by D1 PAM” value (human D1R; [5]) was 45%.
With `Cc1c(-c2ccc(Oc3nccc4occc34)cc2CF)n([11CH3])c(=O)[nH]c1=O` (single isomer, unassigned) [(−)-(Ia), [^11C]-6-(2-(fluoromethyl)-4-(furo[3,2-c]pyridin-4-yloxy)phenyl)-1,5-dimethylpyrimidine-2,4(1H,3H)-dione] the “parent fraction in plasma” value ([4]; at 15 minutes) was 85%, the “parent fraction in plasma” value ([4]; at 30 minutes) was 60% and the “parent fraction in plasma” value ([4]; at 60 minutes) was “about 45%”. The “metabolites detected (words)” value ([4]; listed as (Ia)) was “no associated lipophilic metabolite”, the “metabolites detected (words)” value ([4]; listed as (−)-Ia) was “only hydrophilic metabolites unlikely to cross the blood-brain barrier have been detected” and the “peak uptake SUV” value (D1 receptor [2]; 5-10 minutes post-administration, across brain regions, iv) was 3.5-4. For the same compound, the “binding potential (BPND), caudate” value (D1 receptor [2]; [6]) was 0.94, the “binding potential (BPND), putamen” value (D1 receptor [2]; [6]) was 0.87 and the “SUV in caudate and putamen” value (D1 receptor [2]; at 60 minutes) was “about 2”. For the same compound, the SUV in cerebellum (D1 receptor [2]; at 60 minutes) was “about 1”.
